The numbers were not newly measured in US8349821B2, “Stanol composition and the use thereof” (Raisio Nutrition Ltd., priority 1996, dated 2013), which cites them from elsewhere.

For one series, the system named is male subjects. As to conditions: for Absorption rate, on average: intestinal perfusion technique, ten male subjects.
For a further series, the system named is healthy humans. To be noted: in vivo.

As to `CC(C)[C@H](C)CC[C@@H](C)[C@H]1CC[C@H]2[C@@H]3CC=C4C[C@@H](O)CC[C@]4(C)[C@H]3CC[C@]12C` [campesterol], in the series on male subjects (in vivo), the Dietary campesterol absorbed entry is “up to 10%”. In addition, the “Absorption rate, on average” value in the series with male subjects is recorded as 9.6%.

On to `CC[C@H](CC[C@@H](C)[C@H]1CC[C@H]2[C@@H]3CC[C@H]4C[C@@H](O)CC[C@]4(C)[C@H]3CC[C@]12C)C(C)C` [sitostanol], for which, in the series with healthy humans, the “Absorbability (in words)” value was “practically unabsorbable”.

`CC[C@H](CC[C@@H](C)[C@H]1CC[C@H]2[C@@H]3CC=C4C[C@@H](O)CC[C@]4(C)[C@H]3CC[C@]12C)C(C)C` [sitosterol]: in the series on male subjects, the “Absorption rate, on average” value was 4.2%. Moreover, the “Amount that can be absorbed” value in the series with healthy humans is recorded as < 5%.

Regarding `CC[C@H](/C=C/[C@@H](C)[C@H]1CC[C@H]2[C@@H]3CC=C4C[C@@H](O)CC[C@]4(C)[C@H]3CC[C@]12C)C(C)C` [stigmasterol], the “Absorption rate, on average” value in the series on male subjects is reported as 4.8%.
